The text below walks through data of patent US11000033B2, “Ketone or oxime compound, and herbicide” (NISSAN CHEMICAL CORPORATION, priority 2014, dated 2021).

What all share (format): in vivo
One series has as its system wheat. Kind of series: Test Example 5: effect on crop by foliage application, plastic box (symbol e). As to conditions: 320 g/ha, 3 weeks after application. The essentials:
(§1)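 Foliage-application test plants come from spot sowing in sterilized diluvial soil under a soil layer of about 1.5 cm, grown at 25° C. to 30° C. in a greenhouse.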

A further series has as its system corn. The series can be described thus: Test Example 4: effect on crop by soil treatment (symbol c). The settings on record: application herbicide amount 320 g/ha. An outline of the steps:
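Soil-treatment setup: crop and weed seeds were spot-sown into sterilized diluvial soil, then buried beneath approximately 1.5 cm of it, and the boxes were housed in a 25–30° C. greenhouse.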

A further series deals with rice plant. The series can be described thus: Test Example 5: effect on crop by foliage application, plastic box (symbol b). As to conditions: 320 g/ha, 3 weeks after application. An outline of the steps: as §1
The test system of another series is Monochoria vaginalis. Kind of series: Test Example 2: herbicidal activity, application during weed generation in submerged conditions (symbol C). As to conditions: Table 23; application herbicide amount 320 g/ha; grade 0-5 by criteria of Test Example 1. An outline of the steps:
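Compound was applied as a water-diluted emulsion into the standing water of flooded pots (4 cm) once co-sown weeds reached one to two leaves. Greenhouse temperature was 25° C. to 30° C., soil was alluvial, and each species was rated visually after 3 weeks.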

The test system of a further series is Amaranthus retroflexus. Kind of series: Test Example 4: herbicidal effect by soil treatment (symbol N). The settings on record: application herbicide amount 320 g/ha. The essentials: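 Seeds were sown in sterilized diluvial soil, covered with about 1.5 cm of soil, and the soil surface was sprayed with a water-diluted emulsion of the compound at a predetermined rate. Plants grew in a greenhouse at 25° C. to 30° C.; effects were scored visually 3 weeks after application.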

The test system of a further series is soybean. Kind of series: Test Example 4: effect on crop by soil treatment (symbol d). As to conditions: application herbicide amount 320 g/ha. The essentials:
(§2)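 Crop seed is sown in spots together with several weed species in a box of sterilized diluvial soil. It is covered by about 1.5 cm of soil and kept in a greenhouse held between 25° C. and 30° C.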

A further series deals with rice. Kind of series: Test Example 4: effect on crop by soil treatment (symbol b). As to conditions: application herbicide amount 320 g/ha. The essentials:
as §2

For the molecule `CC(=O)C1CC(O)=C(c2c(C)cc(C)cc2C)C1=O` (centres unmarked) [8-001], the “e: wheat, effect on crop grade” value in the series on wheat is recorded as 0 (Herbicidal ratio of 5% or lower (almost no effect)). Besides, the “Effect on crop grade, c: corn” value in the series with corn is listed as 0 (Herbicidal ratio of 5% or lower (almost no effect)). For the same molecule, in the series on rice plant, the “b: directly sowed rice plant, effect on crop grade” value was 2 (Herbicidal ratio of 20% or higher and lower than 40%). In addition, the “Herbicidal effect grade, C: Monochoria vaginalis” value (“Herbicidal effect grade, C” below) with Monochoria vaginalis is reported as 0 (Herbicidal ratio of 5% or lower (almost no effect)). Moreover, in the series with Amaranthus retroflexus, the “Herbicidal effect grade, N: Amaranthus retroflexus” value is reported as 0 (Herbicidal ratio of 5% or lower (almost no effect)). In addition, in the series on soybean, the “Effect on crop grade, d: soybean” value is recorded as 0 (Herbicidal ratio of 5% or lower (almost no effect)). Further, the “Effect on crop grade, b: directly sowed rice plant” value with rice was 0 (Herbicidal ratio of 5% or lower (almost no effect)).
With `COc1cc(Br)cc(C)c1C1=C(O)CC(CC(C)=O)C1=O` (centres unmarked) [7-027, 2-(4-bromo-2-methoxy-6-methylphenyl)-3-hydroxy-5-(2-oxopropyl)cyclopent-2-enone], the “e: wheat, effect on crop (criteria of Test Example 1)” value in the series with wheat is 0 (Herbicidal ratio of 5% or lower (almost no effect)). The “Effect on crop grade, c: corn” value in the series on corn was 3 (Herbicidal ratio of 40% or higher and lower than 70%). Besides, the “b: directly sowed rice plant, effect on crop (criteria of Test Example 1)” value in the series with rice plant is 3 (Herbicidal ratio of 40% or higher and lower than 70%). The “Herbicidal effect grade, C” value with Monochoria vaginalis is 2 (Herbicidal ratio of 20% or higher and lower than 40%). Further, the “Herbicidal effect grade, N: Amaranthus retroflexus” value with Amaranthus retroflexus was 0 (Herbicidal ratio of 5% or lower (almost no effect)). The “Effect on crop grade, d: soybean” value in the series with soybean is recorded as 0 (Herbicidal ratio of 5% or lower (almost no effect)). Moreover, in the series with rice, the “Effect on crop grade, b: directly sowed rice plant” value was 5 (Herbicidal ratio of 90% or more (almost completely withered)).
Consider `CON=C(C)CC1CC(O)=C(c2c(C)cc(-n3cncn3)cc2C)C1=O` (centres unmarked) [6-074], for which, in the series on wheat, the “e: wheat, effect on crop (criteria of Test Example 1)” value is on record as 0 (Herbicidal ratio of 5% or lower (almost no effect)). The “c: corn, effect on crop grade” value in the series on corn is 0 (Herbicidal ratio of 5% or lower (almost no effect)). In addition, the “b: directly sowed rice plant, effect on crop (criteria of Test Example 1)” value in the series with rice plant was 2 (Herbicidal ratio of 20% or higher and lower than 40%). Moreover, the “Herbicidal effect grade, C” value in the series with Monochoria vaginalis is 0 (Herbicidal ratio of 5% or lower (almost no effect)). Moreover, the “N: Amaranthus retroflexus, herbicidal effect grade” value with Amaranthus retroflexus was 0 (Herbicidal ratio of 5% or lower (almost no effect)). Also, the “d: soybean, effect on crop grade” value with soybean is 0 (Herbicidal ratio of 5% or lower (almost no effect)). In addition, the “b: directly sowed rice plant, effect on crop grade” value in the series on rice was 3 (Herbicidal ratio of 40% or higher and lower than 70%).
With `CCc1cc(-c2ccc(Cl)cc2)cc(C)c1C1=C(O)CC(CC(C)=NOC)C1=O` (centres unmarked) [6-066], in the series on wheat, the “e: wheat, effect on crop (criteria of Test Example 1)” value is given as 5 (Herbicidal ratio of 90% or more (almost completely withered)). The “c: corn, effect on crop grade” value in the series with corn was 4 (Herbicidal ratio of 70% or higher and lower than 90%). Also, in the series on rice plant, the “b: directly sowed rice plant, effect on crop (criteria of Test Example 1)” value is listed as 5 (Herbicidal ratio of 90% or more (almost completely withered)). Further, the “Herbicidal effect grade, C” value in the series with Monochoria vaginalis was 0 (Herbicidal ratio of 5% or lower (almost no effect)). In addition, in the series with Amaranthus retroflexus, the “N: Amaranthus retroflexus, herbicidal effect grade” value was 2 (Herbicidal ratio of 20% or higher and lower than 40%). Also, the “d: soybean, effect on crop grade” value in the series with soybean is 0 (Herbicidal ratio of 5% or lower (almost no effect)). Also, the “b: directly sowed rice plant, effect on crop grade” value in the series on rice is 5 (Herbicidal ratio of 90% or more (almost completely withered)).
Turning to `C#CCON=C(C)CC1CC(O)=C(c2c(C)cc(C)cc2C)C1=O` (centres unmarked) [1-019], in the series with wheat, the “e: wheat, effect on crop grade” value is 5 (Herbicidal ratio of 90% or more (almost completely withered)). Besides, the “c (corn) effect on crop grade” value in the series on corn was 4 (Herbicidal ratio of 70% or higher and lower than 90%). Also, the “b: directly sowed rice plant, effect on crop grade” value with rice plant is given as 5 (Herbicidal ratio of 90% or more (almost completely withered)). Moreover, the “Herbicidal effect grade, C” value with Monochoria vaginalis is 2 (Herbicidal ratio of 20% or higher and lower than 40%). Besides, the “N (Amaranthus retroflexus) herbicidal effect grade” value in the series on Amaranthus retroflexus was 3 (Herbicidal ratio of 40% or higher and lower than 70%). Moreover, in the series with soybean, the “d (soybean) effect on crop grade” value was 3 (Herbicidal ratio of 40% or higher and lower than 70%). For the same molecule, the “b (directly sowed rice plant) effect on crop grade” value in the series on rice is 5 (Herbicidal ratio of 90% or more (almost completely withered)).
